Entries after “also recorded” stand apart in the source; their conditions may differ.
B1: CNTF: Ciliary neurotrophic factor (protein, UniProt P26441 1-200, looked up)
Ciliary neurotrophic factor: MAFTEHSPLTPHRRDLCSRSIWLARKIRSDLTALTESYVKHQGLNKNINLDSADGMPVASTDQWSELTEAERLQENLQAYRTFHVLLARLLEDQQVHFTPTEGDFHQAIHTLLLQVAAFAYQIEELMILLEYKIPRNEADGMPINVGDGGLFEKKLWGLKVLQELSQWTVRSIHDLRFISSHQTGIPARGSHYIANNKKM

Columns and labels:
Format in all cases: cell-based
[1] = test system: goldfish retinal ganglion cells; experiment: Axonal outgrowth from dissociated goldfish retinal ganglion cell cultures; conditions: for restoration of AF-1-induced growth in the presence of 10 μM 6-TG: inosine 100 μM
Protocol: Axogenesis factor-1 was obtained essentially as described in Schwalb et al., 1995, and Schwalb et al., Neuroscience, 72: 901-910, 1996, the contents of which are incorporated herein by reference). Optic nerves were dissected, cut into fragments 1 mm in length, and incubated in a ratio of 6 nerves in 3 ml of either L-15 media (Gibco BRL) or phosphate-buffered saline (Gibco BRL). After 3-4 hours, nerve fragments were removed by filtering through a 0.22 μm pore low protein-binding filter (Gelman). A low molecular weight fraction of the conditioned media was prepared by ultrafiltration, first with a molecular weight cut-off of 3 kDa (Amicon Centriprep-3), then with a cut-off of 1 kDa (Filtron). The filtrate was used as a positive control at 20-30% final concentration. […] Goldfish (Comet Variety, Mt. Parnell Fisheries, Mt. Parnell Pa.), 6-10 cm in length, were dark-adapted and their retinas dissected. Retinas were incubated with papain (20 μg/ml), activated with cysteine (2.8 mM) for 30 minutes at room temperature, then dissociated by gentle trituration. […] Neuroscience 15: 5514-5625, 1995, the contents of which are incorporated herein by reference). […] Cells were maintained at 21° C. in serum free, defined media containing insulin, selenium, transferrin, bovine serum albumin, catalase, superoxide dismutase, hormones, and vitamins in Eagle's L-15 media as described in Schwalb et al., 1995, the contents of which are incorporated herein by reference). Dissociated cultures of purified rat retinal ganglion cells were prepared by immunopanning as described in Barres et al., Neuron, 1: 791-803, 1988, the contents of which are incorporated herein by reference). In brief, retinas from postnatal day 8 Sparague-Dawley rats were dissociated using papain activated with cysteine. Macrophages were removed by incubation with an anti-rat macrophage antibody (Accurate) followed by immunopanning with an anti-rabbit 1gG antibody. Ganglion cells were isolated by immunopanning with an anti-Thy-1 antibody, then dislodged with trypsin for use in low-density cultures. Rat retinal ganglion cells were maintained at 37° C. in a CO2 incubator using the same medium described above except for the presence of 30 mM bicarbonate. In a typical experiment, samples were plated in quadruplicate in randomized positions of a 24-well plate and the code was concealed to ensure that growth was evaluated in a blinded fashion. Each experiment contained 4 wells of a negative control (media plus supplements only) and 4 wells of a positive control (a standardized AF-1 sample of known activity). […] After the completion of counting, the code was broken, the data tabulated, and means and standard errors were calculated for the 4 replicate wells of each sample using Cricket Graph (CA Associates, […].). […] Group comparisons were based upon pairwise, 2-tailed Student's t-tests. Several independent experiments were performed for most samples, as noted in the figure legends. […] Cell survival is reported as the number of viable RGCs per high-powered field.

[2] = test system: GAP-43; experiment: GAP-43 immunohistochemistry in goldfish retinal ganglion cells
Protocol: One hallmark of optic nerve regeneration in vivo is the enhanced expression of the membrane phosphoprotein GAP-43. To investigate whether this upregulation is induced by purines, immunohistochemistry was carried out using a polyclonal rabbit antiserum against recombinant […] GAP-43. Recombinant zebrafish GAP-43 was made by transforming E. coli with a cDNA isolated by Dr. Eva Reinhard, University of Basel, Switzerland (see Reinhard et al., Development, 120: 1757-1775, 1994, the contents of which are incorporated herein by reference) subcloned into the prokaryotic expression vector pTrcHisB (Invitrogen). The protein produced was purified by Ni^2+-NTA-affinity chromatography and used to immunize rabbits. […] Inosine produced a 5.5-fold increase in the number of intensely stained cells over L-15, whereas AF-1 produced a 8-fold increase. In all 3 cases, the intensity of GAP-43 immunostaining correlated strongly with axonal length.

[3] = test system: rat retinal ganglion cells; experiment: Axonal outgrowth from purified rat retinal ganglion cells; conditions: rat RGCs
Protocol: Goldfish (Comet Variety, Mt. Parnell Fisheries, Mt. Parnell Pa.), 6-10 cm in length, were dark-adapted and their retinas dissected. Retinas were incubated with papain (20 μg/ml), activated with cysteine (2.8 mM) for 30 minutes at room temperature, then dissociated by gentle trituration. Repeated cycles of trituration and sedimentation yielded cultures nearly homogeneous in ganglion cells, which are readily identified by their oval shape, phase-bright appearance, size (diameter 15 μm), and extension of only 1 or 2 neurites of uniform caliber; these criteria have been verified by retrograde labeling (see Schwartz & Agranoff, Brain Res. 206: 331-343, 1981 and Schwalb et al., J. Neuroscience 15: 5514-5625, 1995, the contents of which are incorporated herein by reference). Low density cultures were achieved by plating c. 5×10^3 cells/well into poly L-lysine coated, 24-well culture dishes (Costar, Cambridge, Mass.). Cells were maintained at 21° C. in serum free, defined media containing insulin, selenium, transferrin, bovine serum albumin, catalase, superoxide dismutase, hormones, and vitamins in Eagle's L-15 media as described in Schwalb et al., 1995, the contents of which are incorporated herein by reference). Dissociated cultures of purified rat retinal ganglion cells were prepared by immunopanning as described in Barres et al., Neuron, 1: 791-803, 1988, the contents of which are incorporated herein by reference). In brief, retinas from postnatal day 8 Sparague-Dawley rats were dissociated using papain activated with cysteine. Macrophages were removed by incubation with an anti-rat macrophage antibody (Accurate) followed by immunopanning with an anti-rabbit 1gG antibody. Ganglion cells were isolated by immunopanning with an anti-Thy-1 antibody, then dislodged with trypsin for use in low-density cultures. Rat retinal ganglion cells were maintained at 37° C. in a CO2 incubator using the same medium described above except for the presence of 30 mM bicarbonate.
In a typical experiment, samples were plated in quadruplicate in randomized positions of a 24-well plate and the code was concealed to ensure that growth was evaluated in a blinded fashion. Each experiment contained 4 wells of a negative control (media plus supplements only) and 4 wells of a positive control (a standardized AF-1 sample of known activity). Growth and survival were assessed after 6 days for all ganglion cells in 25 consecutive fields of each well using phase contrast microscopy at 400× magnification (c. 150 ganglion cells counted per well). Extension of a process 5 cell diameters in length was the criterion for growth, since it clearly distinguishes stimulated cells from negative controls (see Schwalb et al., 1995). After the completion of counting, the code was broken, the data tabulated, and means and standard errors were calculated for the 4 replicate wells of each sample using Cricket Graph (CA Associates, Islandia, N.Y.). Data were normalized by subtracting the growth in the negative controls (usually 4-5%) and dividing by the net growth in the positive controls. In the most favorable experiments, more than 50% of retinal ganglion cells (RGCs) exposed to AF-1 extended axons 5 cell diameters in length after 6 days. Group comparisons were based upon pairwise, 2-tailed Student's t-tests. Several independent experiments were performed for most samples, as noted in the figure legends. In some cases, cell viability was assessed with the dye 5,6-carboxyfluorescein diacetate. […]

[4] = test system: rat retinal ganglion cells; experiment: Cell survival of purified rat retinal ganglion cells; conditions: CNTF, rat RGCs
Protocol: Goldfish (Comet Variety, Mt. Parnell Fisheries, Mt. Parnell Pa.), 6-10 cm in length, were dark-adapted and their retinas dissected. Retinas were incubated with papain (20 μg/ml), activated with cysteine (2.8 mM) for 30 minutes at room temperature, then dissociated by gentle trituration. Repeated cycles of trituration and sedimentation yielded cultures nearly homogeneous in ganglion cells, which are readily identified by their oval shape, phase-bright appearance, size (diameter 15 μm), and extension of only 1 or 2 neurites of uniform caliber; these criteria have been verified by retrograde labeling (see Schwartz & Agranoff, Brain Res. 206: 331-343, 1981 and Schwalb et al., J. Neuroscience 15: 5514-5625, 1995, the contents of which are incorporated herein by reference). […]
In a typical experiment, samples were plated in quadruplicate in randomized positions of a 24-well plate and the code was concealed to ensure that growth was evaluated in a blinded fashion. […] Growth and survival were assessed after 6 days for all ganglion cells in 25 consecutive fields of each well using phase contrast microscopy at 400× magnification (c. 150 ganglion cells counted per well). […] After the completion of counting, the code was broken, the data tabulated, and means and standard errors were calculated for the 4 replicate wells of each sample using Cricket Graph (CA Associates, Islandia, N.Y.). […]

Molecule | EC50 ([1]; Carassius auratus, 144 h, goldfish RGCs, 6 days, estimated from dose-response curves) [µM] | Emax ([1]; Carassius auratus, normalized to AF-1 positive control, adenosine 50-100 μM, guanosine 100 μM, inosine above 25 or 50 μM, read-out: maximal response relative to the level induced by AF-1) [%] | outgrowth at higher concentrations ([1]; concentrations above those giving the maximal response) | dependence of outgrowth on cell density ([1]; fixed concentration (100 μM), 3-4-fold range of cell densities) | restoration of AF-1-induced growth in the presence of 10 μM 6-TG [1] | restoration of AF-1-induced growth in the presence of 10 μM 6-TG ([1]; listed as Inosine) | combined effect with AF-1 ([1]; inosine and AF-1 at saturating / higher concentrations) | combined effect with AF-1 ([1]; inosine and AF-1 each at EC50 (half-maximal) levels) | increase in the number of intensely stained cells over L-15 ([2]; GAP-43 immunoreactivity score 2 (intense), 150-200 cells) [fold] | GAP-43 levels relative to L-15 treated controls ([2]; immunostaining) | restoration of CNTF stimulated growth in the presence of 10 μM 6-TG ([3]; inosine 25 μM) | restoration of CNTF-induced outgrowth in the presence of 10 μM 6-TG ([3]; inosine 50 μM) | increase in the number of cells extending axons 5 cell diameters in length ([3]; inosine at 25 or 50 μM) [%] | outgrowth compared with inosine ([3]; CNTF) | cell survival [4]
OC[C@H]1O[C@@H](n2cnc3c(O)ncnc32)[C@H](O)[C@@H]1O [inosine] | 10 to 15 | ~60 | did not cause growth to decline | growth is not a function of cell density; also recorded: independent of cell density | fully restored the growth induced by AF-1 | restored all of the growth induced by AF-1 | growth saturates at the level stimulated by high AF-1 levels alone; also recorded: growth reached a plateau level | additive effects | 5.5 | large increase in GAP-43 levels | fully restored | restored CNTF-induced outgrowth nearly to its original level | 50 | – | –
B1 | – | – | – | – | – | – | – | – | – | – | – | – | – | much larger increase in outgrowth | enhanced cell survival
